Reference: US10376520B2, “Methods for the treatment of cardiovascular disorders” (Galapagos NV, priority 2015, dated 2019)

System: RA patients
Assay: Atherogenic index, Study 1 (RA patients, add-on to MTX)
Type: in vivo, human
Description: As used herein, the term ‘atherogenic index’ refers to
Double-blind, placebo-controlled add on study in subjects with moderately to severely active RA who have an inadequate response to methotrexate (MTX) (oral or parenteral).
Compound 1 (dosed as a [Compound 1:HCl:3H2O]) is dosed for twelve weeks once daily (q.d.) (50 mg, 100 mg or 200 mg) or twice daily (b.i.d.) (25 mg, 50 mg or 100 mg); or placebo.
At Week 12, the subjects on placebo who have not achieved 20% improvement in swollen joint count (SJC66) and tender joint count (TJC68) are re-randomized automatically to receive Compound 1 (dosed as a [Compound 1:HCl:3H2O]) either at 100 mg q.d. or 50 mg b.i.d. doses in a blinded fashion; subjects on 50 mg q.d. who have not achieved 20% improvement in SJC66 and TJC68 will be assigned to 100 mg q.d. and subjects on 25 mg b.i.d. that have not achieved a 20% improvement in SJC66 and TJC68 will be assigned to 50 mg b.i.d. Subjects who switch treatment at week 12 are handled as if they discontinued at week 12 for the purpose of statistical analysis, whereas subjects in the other groups will maintain their randomized treatment until Week 24.
The atherogenic index has been identified to be a good predictor of cardiovascular disorders risks and is calculated as follows: […]

[1] = 100 mg b.i.d. continued over 24 weeks, week 1
[2] = 100 mg b.i.d. continued over 24 weeks, week 2
[3] = 100 mg b.i.d. continued over 24 weeks, week 4
[4] = 100 mg b.i.d. continued over 24 weeks, week 8
[5] = 100 mg b.i.d. continued over 24 weeks, week 12
[6] = 100 mg b.i.d. continued over 24 weeks, week 16
[7] = 100 mg b.i.d. continued over 24 weeks, week 20
[8] = 100 mg b.i.d. continued over 24 weeks, week 24
[9] = 100 mg q.d. continued over 24 weeks, week 1
[10] = 100 mg q.d. continued over 24 weeks, week 2
[11] = 100 mg q.d. continued over 24 weeks, week 4
[12] = 100 mg q.d. continued over 24 weeks, week 8
[13] = 100 mg q.d. continued over 24 weeks, week 12
[14] = 100 mg q.d. continued over 24 weeks, week 16
[15] = 100 mg q.d. continued over 24 weeks, week 20
[16] = 100 mg q.d. continued over 24 weeks, week 24

O=C(Nc1nc2cccc(-c3ccc(CN4CCS(=O)(=O)CC4)cc3)n2n1)C1CC1 [Compound 1, cyclopropanecarboxylic acid {5-[4-(1,1-dioxo-thiomorpholin-4-ylmethyl)-phenyl]-[1,2,4]triazolo[1,5-a]pyridin-2yl}-amide]
Atherogenic index Median CFB - 12 weeks results (50 mg q.d., week 1): -0.10 mmol/L
Atherogenic index Mean CFB (50 mg q.d., week 2): -0.13 mmol/L
Atherogenic index Mean percentage CFB - 12 weeks results (50 mg q.d., week 2): −3%
Atherogenic index Median CFB - 12 weeks results (50 mg q.d., week 2): -0.20 mmol/L
Atherogenic index Mean CFB (50 mg q.d., week 4): -0.11 mmol/L
Atherogenic index Mean percentage CFB - 12 weeks results (50 mg q.d., week 4): −3%
Atherogenic index Median CFB - 12 weeks results (50 mg q.d., week 4): -0.10 mmol/L
Atherogenic index Mean CFB (50 mg q.d., week 8): -0.03 mmol/L
Atherogenic index Mean percentage CFB - 12 weeks results (50 mg q.d., week 8): 0%
Atherogenic index Median CFB - 12 weeks results (50 mg q.d., week 8): -0.10 mmol/L
Atherogenic index Mean CFB (50 mg q.d., week 12): 0.01 mmol/L
Atherogenic index Mean percentage CFB - 12 weeks results (50 mg q.d., week 12): 2%
Atherogenic index Median CFB - 12 weeks results (50 mg q.d., week 12): 0.00 mmol/L
Atherogenic index Mean CFB - 24 weeks results [1]: -0.05 mmol/L
Atherogenic index Mean percentage CFB - 24 weeks results [1]: −0.38%
Atherogenic index Median CFB - 24 weeks results [1]: 0.00 mmol/L
Atherogenic index Mean CFB - 24 weeks results [2]: -0.19 mmol/L
Atherogenic index Mean percentage CFB - 24 weeks results [2]: −4.84%
Atherogenic index Median CFB - 24 weeks results [2]: -0.20 mmol/L
Atherogenic index Mean CFB - 24 weeks results [3]: -0.30 mmol/L
Atherogenic index Mean percentage CFB - 24 weeks results [3]: −6.94%
Atherogenic index Median CFB - 24 weeks results [3]: -0.30 mmol/L
Atherogenic index Mean CFB - 24 weeks results [4]: -0.18 mmol/L
Atherogenic index Mean percentage CFB - 24 weeks results [4]: −3.54%
Atherogenic index Median CFB - 24 weeks results [4]: -0.20 mmol/L
Atherogenic index Mean CFB - 24 weeks results [5]: -0.24 mmol/L
Atherogenic index Mean percentage CFB - 24 weeks results [5]: −4.76%
Atherogenic index Median CFB - 24 weeks results [5]: -0.20 mmol/L
Atherogenic index Mean CFB - 24 weeks results [6]: -0.25 mmol/L
Atherogenic index Mean percentage CFB - 24 weeks results [6]: −5.23%
Atherogenic index Median CFB - 24 weeks results [6]: -0.30 mmol/L
Atherogenic index Mean CFB - 24 weeks results [7]: -0.24 mmol/L
Atherogenic index Mean percentage CFB - 24 weeks results [7]: −5.40%
Atherogenic index Median CFB - 24 weeks results [7]: -0.20 mmol/L
Atherogenic index Mean CFB - 24 weeks results [8]: -0.18 mmol/L
Atherogenic index Mean percentage CFB - 24 weeks results [8]: −3.70%
Atherogenic index Median CFB - 24 weeks results [8]: -0.20 mmol/L
Atherogenic index Mean CFB - 24 weeks results [9]: -0.06 mmol/L
Atherogenic index Mean percentage CFB - 24 weeks results [9]: −0.13%
Atherogenic index Median CFB - 24 weeks results [9]: -0.10 mmol/L
Atherogenic index Mean CFB - 24 weeks results [10]: -0.17 mmol/L
Atherogenic index Mean percentage CFB - 24 weeks results [10]: −2.80%
Atherogenic index Median CFB - 24 weeks results [10]: -0.10 mmol/L
Atherogenic index Mean CFB - 24 weeks results [11]: -0.11 mmol/L
Atherogenic index Median CFB - 24 weeks results [11]: -0.10 mmol/L
Atherogenic index Mean CFB - 24 weeks results [12]: -0.11 mmol/L
Atherogenic index Mean percentage CFB - 24 weeks results [12]: −1.34%
Atherogenic index Median CFB - 24 weeks results [12]: -0.10 mmol/L
Atherogenic index Mean CFB - 24 weeks results [13]: -0.06 mmol/L
Atherogenic index Mean percentage CFB - 24 weeks results [13]: −0.45%
Atherogenic index Median CFB - 24 weeks results [13]: -0.10 mmol/L
Atherogenic index Mean CFB - 24 weeks results [14]: -0.18 mmol/L
Atherogenic index Mean percentage CFB - 24 weeks results [14]: −3.49%
Atherogenic index Median CFB - 24 weeks results [14]: -0.20 mmol/L
Atherogenic index Mean CFB - 24 weeks results [15]: -0.27 mmol/L
Atherogenic index Mean percentage CFB - 24 weeks results [15]: −5.64%
Atherogenic index Median CFB - 24 weeks results [15]: -0.35 mmol/L
Atherogenic index Mean CFB - 24 weeks results [16]: -0.17 mmol/L
Atherogenic index Mean percentage CFB - 24 weeks results [16]: −3.81%
Atherogenic index Median CFB - 24 weeks results [16]: -0.30 mmol/L
Atherogenic index Mean CFB (100 mg q.d., week 1): -0.06 mmol/L
Atherogenic index Mean percentage CFB - 12 weeks results (100 mg q.d., week 1): 0%
Atherogenic index Median CFB - 12 weeks results (100 mg q.d., week 1): -0.10 mmol/L
Atherogenic index Mean CFB (100 mg q.d., week 2): -0.17 mmol/L
Atherogenic index Mean percentage CFB - 12 weeks results (100 mg q.d., week 2): −3%
Atherogenic index Median CFB - 12 weeks results (100 mg q.d., week 2): -0.10 mmol/L
Atherogenic index Mean CFB (100 mg q.d., week 4): -0.11 mmol/L
Atherogenic index Mean percentage CFB - 12 weeks results (100 mg q.d., week 4): −2%
Atherogenic index Median CFB - 12 weeks results (100 mg q.d., week 4): -0.10 mmol/L
Atherogenic index Mean CFB (100 mg q.d., week 8): -0.11 mmol/L
Atherogenic index Mean percentage CFB - 12 weeks results (100 mg q.d., week 8): −1%
Atherogenic index Median CFB - 12 weeks results (100 mg q.d., week 8): -0.10 mmol/L
Atherogenic index Mean CFB (100 mg q.d., week 12): -0.06 mmol/L
Atherogenic index Mean percentage CFB - 12 weeks results (100 mg q.d., week 12): 0%
